# Numbered stars: 1 amine (or outer) side, 2 acyl side, 3 side chain; on linkers, the order of the positions; unused ones are H or OH. Square brackets hold non-standard residues; d marks the D form. Side chains are listed from the residue outwards. Peptide text beside a SMILES is read from it. * marks the point of attachment. C18 diacid = O=C(O)CCCCCCCCCCCCCCCCC(=O)*; γGlu = O=C(O)[C@H](CCC(=O)[*:2])N[*:1]; AEEA = NCCOCCOCC(=O)O
# Biological target: glucagon receptor (Homo sapiens, UniProt P47871)
# Test: cell-based
# Sequence of glucagon receptor (P47871 26-477): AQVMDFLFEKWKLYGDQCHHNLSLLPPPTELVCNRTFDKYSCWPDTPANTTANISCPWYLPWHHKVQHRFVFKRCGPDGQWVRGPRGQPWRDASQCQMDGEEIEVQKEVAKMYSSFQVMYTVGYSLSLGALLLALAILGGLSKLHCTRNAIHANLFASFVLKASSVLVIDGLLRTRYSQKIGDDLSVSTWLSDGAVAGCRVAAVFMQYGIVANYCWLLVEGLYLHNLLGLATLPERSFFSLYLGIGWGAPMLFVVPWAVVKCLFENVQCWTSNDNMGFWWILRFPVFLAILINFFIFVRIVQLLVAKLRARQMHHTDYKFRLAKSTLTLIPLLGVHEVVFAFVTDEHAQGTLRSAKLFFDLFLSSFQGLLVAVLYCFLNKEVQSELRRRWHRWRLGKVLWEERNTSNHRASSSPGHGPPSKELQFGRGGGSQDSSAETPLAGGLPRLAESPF
row,EC50 [nM],SMILES
1,0.007,"CC(C)C[C@H](NC(=O)[C@H](Cc1ccc(O)cc1)NC(=O)[C@H](CCCCN)NC(=O)[C@H](CO)NC(=O)[C@H](Cc1ccc(O)cc1)NC(=O)[C@H](CC(=O)O)NC(=O)[C@H](CO)NC(=O)[C@@H](NC(=O)[C@H](Cc1ccccc1)NC(=O)[C@@H](NC(=O)CNC(=O)[C@H](CCC(N)=O)NC(=O)[C@H](CO)NC(=O)[C@@H](N)Cc1c[nH]cn1)[C@@H](C)O)[C@@H](C)O)C(=O)N[C@@H](CC(=O)O)C(=O)N[C@@H](CO)C(=O)N[C@@H](CCCCN)C(=O)N[C@@H](CCCNC(=N)N)C(=O)N[C@@H](C)C(=O)N[C@@H](CCC(N)=O)C(=O)N[C@@H](CCC(=O)O)C(=O)N[C@@H](Cc1ccccc1)C(=O)N[C@H](C(=O)N[C@@H](CCCCNC(=O)COCCOCCNC(=O)COCCOCCNC(=O)CC[C@H](NC(=O)CCCCCCCCCCCCCCCCC(=O)O)C(=O)O)C(=O)N[C@@H](Cc1c[nH]c2ccccc12)C(=O)N[C@@H](CC(C)C)C(=O)N[C@@H](CC(C)C)C(=O)N[C@@H](CO)C(=O)N[C@H](C(N)=O)[C@@H](C)O)C(C)C [Example 40, N^ε24-([2-[2-[2-[[2-[2-[2-[[(4S)-5-hydroxy-4-[(18-hydroxy-18-oxooctadecanoyl)amino]-5-oxopentanoyl]amino]ethoxy]ethoxy]acetyl]amino]ethoxy]ethoxy]acetyl]) [Lys^17, Glu^21,Lys^24,Leu^27,Ser^28]Glucagon peptide amide] (H-HSQGTFTSDYSKYLDSKRAQEFVK([AEEA-AEEA-γGlu-C18 diacid])WLLST-NH2; N-terminus assumed)"
2,0.009,"CC(C)C[C@H](NC(=O)[C@H](Cc1ccc(O)cc1)NC(=O)[C@H](CCCCN)NC(=O)[C@H](CO)NC(=O)[C@H](Cc1ccc(O)cc1)NC(=O)[C@H](CC(=O)O)NC(=O)[C@H](CO)NC(=O)[C@@H](NC(=O)[C@H](Cc1ccccc1)NC(=O)[C@@H](NC(=O)CNC(=O)[C@H](CCC(N)=O)NC(=O)[C@H](CO)NC(=O)[C@@H](N)Cc1c[nH]cn1)[C@@H](C)O)[C@@H](C)O)C(=O)N[C@@H](CC(=O)O)C(=O)N[C@@H](CO)C(=O)N[C@@H](CCCCN)C(=O)N[C@@H](CCCCN)C(=O)N[C@@H](C)C(=O)N[C@@H](CCC(N)=O)C(=O)N[C@@H](CCC(=O)O)C(=O)N[C@@H](Cc1ccccc1)C(=O)N[C@H](C(=O)N[C@@H](CCCCNC(=O)COCCOCCNC(=O)COCCOCCNC(=O)CC[C@H](NC(=O)CCCCCCCCCCCCCCCCC(=O)O)C(=O)O)C(=O)N[C@@H](Cc1c[nH]c2ccccc12)C(=O)N[C@@H](CC(C)C)C(=O)N[C@@H](CC(C)C)C(=O)N[C@@H](CO)C(=O)N[C@H](C(=O)O)[C@@H](C)O)C(C)C [Example 55, N^ε24-([2-[2-[2-[[2-[2-[2-[[(4S)-5-hydroxy-4-[(18-hydroxy-18-oxooctadecanoyl)amino]-5-oxopentanoyl]amino]ethoxy]ethoxy]acetyl]amino]ethoxy]ethoxy]acetyl]) [Lys^17,Lys^18,Glu^21,Lys^24,Leu^27, Ser^28] Glucagon] (H-HSQGTFTSDYSKYLDSKKAQEFVK([AEEA-AEEA-γGlu-C18 diacid])WLLST-OH; N-terminus and C-terminus assumed)"
3,0.043,"CC(C)C[C@H](NC(=O)[C@H](Cc1ccc(O)cc1)NC(=O)[C@H](CCCCN)NC(=O)[C@H](CO)NC(=O)[C@H](Cc1ccc(O)cc1)NC(=O)[C@H](CC(=O)O)NC(=O)[C@H](CO)NC(=O)[C@@H](NC(=O)[C@H](Cc1ccccc1)NC(=O)[C@@H](NC(=O)CNC(=O)[C@H](CCC(N)=O)NC(=O)[C@H](CO)NC(=O)[C@@H](N)Cc1c[nH]cn1)[C@@H](C)O)[C@@H](C)O)C(=O)N[C@@H](CC(=O)O)C(=O)N[C@@H](CO)C(=O)N[C@@H](CCCNC(=N)N)C(=O)N[C@@H](CCCNC(=N)N)C(=O)N[C@@H](C)C(=O)N[C@@H](CCC(N)=O)C(=O)N[C@@H](CCC(=O)O)C(=O)N[C@@H](Cc1ccccc1)C(=O)N[C@H](C(=O)N[C@@H](CCCCNC(=O)COCCOCCNC(=O)COCCOCCNC(=O)CC[C@H](NC(=O)CCCCCCCCCCCCCCCCC(=O)O)C(=O)O)C(=O)N[C@@H](CCCNC(=N)N)C(=O)N[C@@H](CC(C)C)C(=O)N[C@@H](CC(C)C)C(=O)N[C@@H](CC(N)=O)C(=O)N[C@H](C(N)=O)[C@@H](C)O)C(C)C [Example 31, N^ε24-([2-[2-[2-[[2-[2-[2-[[(4S)-5-hydroxy-4-[(18-hydroxy-18-oxooctadecanoyl)amino]-5-oxopentanoyl]amino]ethoxy]ethoxy]acetyl]amino]ethoxy]ethoxy]acetyl])[Glu^21, Lys^24, Arg25 Leu^27,]Glucagon peptide amide]"
4,0.02,CC(C)C[C@H](NC(=O)[C@H](Cc1ccc(O)cc1)NC(=O)[C@H](CCCCN)NC(=O)[C@H](CO)NC(=O)[C@H](Cc1ccc(O)cc1)NC(=O)[C@H](CC(=O)O)NC(=O)[C@H](CO)NC(=O)[C@@H](NC(=O)[C@H](Cc1ccccc1)NC(=O)[C@@H](NC(=O)CNC(=O)[C@H](CCC(N)=O)NC(=O)[C@H](CO)NC(=O)[C@@H](N)Cc1c[nH]cn1)[C@@H](C)O)[C@@H](C)O)C(=O)N[C@@H](CC(=O)O)C(=O)N[C@@H](CCCCNC(=O)COCCOCCNC(=O)COCCOCCNC(=O)CC[C@H](NC(=O)CCCCCCCCCCCCCCCCC(=O)O)C(=O)O)C(=O)N[C@@H](CCCCN)C(=O)N[C@@H](CCCNC(=N)N)C(=O)N[C@@H](C)C(=O)N[C@@H](CCC(N)=O)C(=O)N[C@@H](CCC(=O)O)C(=O)N[C@@H](Cc1ccccc1)C(=O)N[C@H](C(=O)N[C@@H](CCC(N)=O)C(=O)N[C@@H](Cc1c[nH]c2ccccc12)C(=O)N[C@@H](CC(C)C)C(=O)N[C@@H](CC(C)C)C(=O)N[C@@H](CC(N)=O)C(=O)N[C@H](C(=O)O)[C@@H](C)O)C(C)C [Example 5] (H-HSQGTFTSDYSKYLDK([AEEA-AEEA-γGlu-C18 diacid])KRAQEFVQWLLNT-OH; N-terminus and C-terminus assumed)
5,0.0235,"CC(C)C[C@H](NC(=O)[C@H](CC(C)C)NC(=O)[C@H](Cc1c[nH]c2ccccc12)NC(=O)[C@H](CCCCNC(=O)COCCOCCNC(=O)COCCOCCNC(=O)CC[C@H](NC(=O)CCCCCCCCCCCCCCCCC(=O)O)C(=O)O)NC(=O)[C@@H](NC(=O)[C@H](Cc1ccccc1)NC(=O)[C@H](CC(=O)O)NC(=O)[C@H](CCC(N)=O)NC(=O)[C@H](C)NC(=O)[C@H](CCCNC(=N)N)NC(=O)[C@H](CCCNC(=N)N)NC(=O)[C@H](CCC(=O)O)NC(=O)[C@H](CC(=O)O)NC(=O)[C@H](CC(C)C)NC(=O)[C@H](Cc1ccc(O)cc1)NC(=O)[C@H](CCCCN)NC(=O)[C@H](CO)NC(=O)[C@H](Cc1ccc(O)cc1)NC(=O)[C@H](CC(=O)O)NC(=O)[C@H](CO)NC(=O)[C@@H](NC(=O)[C@H](Cc1ccccc1)NC(=O)[C@@H](NC(=O)CNC(=O)[C@H](CCC(N)=O)NC(=O)[C@H](CO)NC(=O)[C@@H](N)Cc1c[nH]cn1)[C@@H](C)O)[C@@H](C)O)C(C)C)C(=O)N[C@@H](C)C(=O)N[C@H](C(N)=O)[C@@H](C)O [Example 32, N^ε24-([2-[2-[2-[[2-[2-[2-[[(4S)-5-hydroxy-4-[(18-hydroxy-18-oxooctadecanoyl)amino]-5-oxopentanoyl]amino]ethoxy]ethoxy]acetyl]amino]ethoxy]ethoxy]acetyl])[Glu^16, Lys^24, Leu^27, Ala^28] Glucagon peptide amide] (H-HSQGTFTSDYSKYLDERRAQDFVK([AEEA-AEEA-γGlu-C18 diacid])WLLAT-NH2; N-terminus assumed)"
6,0.044,"CC(C)C[C@H](NC(=O)[C@H](Cc1ccc(O)cc1)NC(=O)[C@H](CCCCN)NC(=O)[C@H](CO)NC(=O)[C@H](Cc1ccc(O)cc1)NC(=O)[C@H](CC(=O)O)NC(=O)[C@H](CO)NC(=O)[C@@H](NC(=O)[C@H](Cc1ccccc1)NC(=O)[C@@H](NC(=O)[C@@H](Cc1ccccc1)NC(=O)[C@H](CCC(N)=O)NC(=O)[C@H](CO)NC(=O)[C@@H](N)Cc1c[nH]cn1)[C@@H](C)O)[C@@H](C)O)C(=O)N[C@@H](CC(=O)O)C(=O)N[C@@H](CO)C(=O)N[C@@H](CCCNC(=N)N)C(=O)N[C@@H](CCCNC(=N)N)C(=O)N[C@@H](C)C(=O)N[C@@H](CCC(N)=O)C(=O)N[C@@H](CC(=O)O)C(=O)N[C@@H](Cc1ccccc1)C(=O)N[C@H](C(=O)N[C@@H](CCCCNC(=O)CC[C@H](NC(=O)CC[C@H](NC(=O)COCCOCCNC(=O)COCCOCCNC(=O)CC[C@H](NC(=O)CCCCCCCCCCCCCCCCC(=O)O)C(=O)O)C(=O)O)C(=O)O)C(=O)N[C@@H](Cc1c[nH]c2ccccc12)C(=O)N[C@@H](CC(C)C)C(=O)N[C@@H](CC(C)C)C(=O)N[C@@H](CO)C(=O)N[C@H](C(=O)O)[C@@H](C)O)C(C)C [Example 99, N^ε24-[(4S)-4-carboxy-4-[[(4S)-4-carboxy-4-[[2-[2-[2-[[2-[2-[2-[[(4S)-4-carboxy-4-(17-carboxyheptadecanoylamino)butanoyl]amino]ethoxy]ethoxy]acetyl]amino]ethoxy]ethoxy]acetyl]amino]butanoyl]amino]butanoyl]-[D-Phe4,Lys24,Leu27,Ser28]-Glucagon] (H-HSQ[dF]TFTSDYSKYLDSRRAQDFVK([γGlu-γGlu-AEEA-AEEA-γGlu-C18 diacid])WLLST-OH)"
7,0.016,"CC(C)C[C@H](NC(=O)[C@H](Cc1ccc(O)cc1)NC(=O)[C@H](CCCCN)NC(=O)[C@H](CO)NC(=O)[C@H](Cc1ccc(O)cc1)NC(=O)[C@H](CC(=O)O)NC(=O)[C@H](CO)NC(=O)[C@@H](NC(=O)[C@H](Cc1ccccc1)NC(=O)[C@@H](NC(=O)CNC(=O)[C@H](CCC(N)=O)NC(=O)[C@H](CO)NC(=O)[C@@H](N)Cc1c[nH]cn1)[C@@H](C)O)[C@@H](C)O)C(=O)N[C@@H](CC(=O)O)C(=O)N[C@@H](CO)C(=O)N[C@@H](CCCCN)C(=O)N[C@@H](CCCNC(=N)N)C(=O)N[C@@H](C)C(=O)N[C@@H](CCC(N)=O)C(=O)N[C@@H](CCC(=O)O)C(=O)N[C@@H](Cc1ccccc1)C(=O)N[C@H](C(=O)N[C@@H](CCCCNC(=O)COCCOCCNC(=O)COCCOCCNC(=O)CC[C@H](NC(=O)CCCCCCCCCCCCCCCCC(=O)O)C(=O)O)C(=O)N[C@@H](Cc1c[nH]c2ccccc12)C(=O)N[C@@H](CC(C)C)C(=O)N[C@@H](CC(C)C)C(=O)N[C@@H](CC(N)=O)C(=O)N[C@H](C(N)=O)[C@@H](C)O)C(C)C [Example 35, N^ε24-([2-[2-[2-[[2-[2-[2-[[(4S)-5-hydroxy-4-[(18-hydroxy-18-oxooctadecanoyl)amino]-5-oxopentanoyl]amino]ethoxy]ethoxy]acetyl]amino]ethoxy]ethoxy]acetyl])[Lys^17,Glu^21, Lys^24, Leu^27]Glucagon peptide amide] (H-HSQGTFTSDYSKYLDSKRAQEFVK([AEEA-AEEA-γGlu-C18 diacid])WLLNT-NH2; N-terminus assumed)"

# Source: patent US20160271263A1 (Novo Nordisk A/S, priority 2010, published 2016)
